Structures are written as SMILES.

1 compound from patent US9051279B2, “Substituted isoquinolinones and quinazolinones” (Novartis AG, priority 2009, dated 2015) can be followed below.

This series is described as follows: Solubility and stability of crystalline sulphate salt form I compared to free base amorphous form. The format is physicochemical. Conditions: compared to the free base amorphous form.

On to `COc1cc2c(cc1OC(C)C)[C@H](c1ccc(Cl)cc1)N(c1ccc(N(C)C[C@H]3CC[C@H](N4CCN(C)C(=O)C4)CC3)cc1)C(=O)C2.O=S(=O)(O)O` [(S)-1-(4-Chloro-phenyl)-7-isopropoxy-6-methoxy-2-(4-{methyl-[4-(4-methyl-3-oxo-piperazin-1-yl)-trans-cyclohexylmethyl]-amino}-phenyl)-1,4-dihydro-2H-isoquinolin-3-one sulphate salt], for which the solubility result was “improvements” and the stability entry is recorded as “improvements”.
